In ChEMBL document CHEMBL5550160, “Leveraging a rationally designed veliparib-based anilide eliciting anti-leukemic effects for the design of pH-responsive polymer nanoformulation” (Eur J Med Chem, 2024):

Legend:
[1] = target: T1, Protein deacetylase HDAC6 (Homo sapiens) (UniProt Q9UBN7); assay: Inhibition of HDAC6 (unknown origin) using p53 residues 379 to 382 [RHKK(Ac)] as fluorogenic substrate assessed as residual activity at 1 x 10^-5M (reference value: 101.06%); settings: dose 1.0 10^-5M
T1 sequence (whole entry): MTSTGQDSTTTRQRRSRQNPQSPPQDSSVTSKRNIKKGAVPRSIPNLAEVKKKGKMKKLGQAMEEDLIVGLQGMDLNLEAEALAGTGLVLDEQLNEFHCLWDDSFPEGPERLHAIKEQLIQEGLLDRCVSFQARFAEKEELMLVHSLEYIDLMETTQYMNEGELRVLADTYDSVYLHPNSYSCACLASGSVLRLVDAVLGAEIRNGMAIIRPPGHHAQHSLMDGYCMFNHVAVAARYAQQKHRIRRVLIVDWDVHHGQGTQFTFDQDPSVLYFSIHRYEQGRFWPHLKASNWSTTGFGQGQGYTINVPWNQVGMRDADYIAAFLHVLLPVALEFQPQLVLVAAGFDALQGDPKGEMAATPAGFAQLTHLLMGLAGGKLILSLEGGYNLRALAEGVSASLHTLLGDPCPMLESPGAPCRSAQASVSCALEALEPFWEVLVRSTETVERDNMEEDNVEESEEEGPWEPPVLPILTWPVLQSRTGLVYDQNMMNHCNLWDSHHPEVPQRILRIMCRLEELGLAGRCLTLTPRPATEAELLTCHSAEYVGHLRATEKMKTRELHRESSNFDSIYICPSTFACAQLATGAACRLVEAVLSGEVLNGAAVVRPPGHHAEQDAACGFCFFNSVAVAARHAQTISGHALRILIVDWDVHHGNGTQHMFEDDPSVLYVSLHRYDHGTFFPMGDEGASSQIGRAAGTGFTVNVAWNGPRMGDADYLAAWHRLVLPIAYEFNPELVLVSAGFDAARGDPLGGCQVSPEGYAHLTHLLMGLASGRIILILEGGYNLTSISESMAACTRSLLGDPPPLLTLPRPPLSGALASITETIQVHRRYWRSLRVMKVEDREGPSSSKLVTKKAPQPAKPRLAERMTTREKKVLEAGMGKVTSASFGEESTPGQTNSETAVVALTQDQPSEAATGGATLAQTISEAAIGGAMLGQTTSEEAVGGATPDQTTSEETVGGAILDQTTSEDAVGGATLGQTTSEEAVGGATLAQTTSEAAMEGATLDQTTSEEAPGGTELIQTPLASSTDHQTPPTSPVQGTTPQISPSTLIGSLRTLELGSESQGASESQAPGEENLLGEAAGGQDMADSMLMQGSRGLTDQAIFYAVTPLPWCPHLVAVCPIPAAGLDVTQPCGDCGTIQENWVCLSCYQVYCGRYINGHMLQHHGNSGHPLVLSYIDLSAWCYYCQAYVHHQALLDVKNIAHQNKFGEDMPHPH

[2] = target: Histone deacetylase 5 (Homo sapiens) (UniProt Q9UQL6); assay: Inhibition of HDAC5 (unknown origin) assessed as residual activity at 1.1 x 10^-6M (reference value: 100%); settings: dose 1.1 10^-6M
Chain of Histone deacetylase 5 (Homo sapiens) (Q9UQL6 whole entry, the tested form may be a part): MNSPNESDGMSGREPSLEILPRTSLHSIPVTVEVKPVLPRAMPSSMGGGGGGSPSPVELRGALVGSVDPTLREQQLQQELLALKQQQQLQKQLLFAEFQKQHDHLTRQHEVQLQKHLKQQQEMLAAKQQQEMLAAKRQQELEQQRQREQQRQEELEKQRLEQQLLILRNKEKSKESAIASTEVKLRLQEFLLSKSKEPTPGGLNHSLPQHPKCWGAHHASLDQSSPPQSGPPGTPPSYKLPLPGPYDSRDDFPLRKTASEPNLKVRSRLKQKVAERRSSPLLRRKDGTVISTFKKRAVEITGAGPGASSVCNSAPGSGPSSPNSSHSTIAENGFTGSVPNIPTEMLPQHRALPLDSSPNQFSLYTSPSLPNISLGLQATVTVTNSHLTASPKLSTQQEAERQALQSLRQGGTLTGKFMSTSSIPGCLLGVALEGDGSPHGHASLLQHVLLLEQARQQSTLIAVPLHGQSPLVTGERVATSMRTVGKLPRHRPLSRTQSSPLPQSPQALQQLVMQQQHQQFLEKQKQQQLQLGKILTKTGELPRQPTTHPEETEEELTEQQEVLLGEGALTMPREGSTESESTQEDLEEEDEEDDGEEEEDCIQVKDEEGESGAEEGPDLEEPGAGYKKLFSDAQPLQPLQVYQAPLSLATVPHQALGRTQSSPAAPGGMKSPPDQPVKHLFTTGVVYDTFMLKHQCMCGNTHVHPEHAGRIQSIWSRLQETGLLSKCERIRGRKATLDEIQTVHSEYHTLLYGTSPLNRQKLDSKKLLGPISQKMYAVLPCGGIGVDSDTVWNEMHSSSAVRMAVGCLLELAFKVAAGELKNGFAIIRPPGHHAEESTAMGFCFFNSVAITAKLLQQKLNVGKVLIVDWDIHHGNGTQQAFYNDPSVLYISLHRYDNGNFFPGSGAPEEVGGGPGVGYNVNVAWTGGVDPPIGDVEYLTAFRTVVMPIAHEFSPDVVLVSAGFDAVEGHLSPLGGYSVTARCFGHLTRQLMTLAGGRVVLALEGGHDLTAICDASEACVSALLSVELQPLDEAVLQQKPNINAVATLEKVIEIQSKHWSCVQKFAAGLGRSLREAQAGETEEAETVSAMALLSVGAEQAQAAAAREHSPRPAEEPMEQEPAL

[3] = target: Histone deacetylase 5 (Homo sapiens) (UniProt Q9UQL6); assay: Inhibition of HDAC5 (unknown origin) assessed as residual activity at 4.57 x 10^-9M (reference value: 100%); settings: dose 4.57 10^-9M
[4] = target: T1, Protein deacetylase HDAC6 (Homo sapiens); assay: Inhibition of HDAC6 (unknown origin) using p53 residues 379 to 382 [RHKK(Ac)] as fluorogenic substrate assessed as residual activity at 1.11 x 10^-6M (reference value: 101.06%); settings: dose 1.1 10^-6M
[5] = target: T2, Histone deacetylase 7 (Homo sapiens) (UniProt Q8WUI4); assay: Inhibition of HDAC7 (unknown origin) assessed as residual activity at 3.33 x 10^-6M (reference value: 102.66%); settings: dose 3.33 10^-6M
T2 sequence (whole entry): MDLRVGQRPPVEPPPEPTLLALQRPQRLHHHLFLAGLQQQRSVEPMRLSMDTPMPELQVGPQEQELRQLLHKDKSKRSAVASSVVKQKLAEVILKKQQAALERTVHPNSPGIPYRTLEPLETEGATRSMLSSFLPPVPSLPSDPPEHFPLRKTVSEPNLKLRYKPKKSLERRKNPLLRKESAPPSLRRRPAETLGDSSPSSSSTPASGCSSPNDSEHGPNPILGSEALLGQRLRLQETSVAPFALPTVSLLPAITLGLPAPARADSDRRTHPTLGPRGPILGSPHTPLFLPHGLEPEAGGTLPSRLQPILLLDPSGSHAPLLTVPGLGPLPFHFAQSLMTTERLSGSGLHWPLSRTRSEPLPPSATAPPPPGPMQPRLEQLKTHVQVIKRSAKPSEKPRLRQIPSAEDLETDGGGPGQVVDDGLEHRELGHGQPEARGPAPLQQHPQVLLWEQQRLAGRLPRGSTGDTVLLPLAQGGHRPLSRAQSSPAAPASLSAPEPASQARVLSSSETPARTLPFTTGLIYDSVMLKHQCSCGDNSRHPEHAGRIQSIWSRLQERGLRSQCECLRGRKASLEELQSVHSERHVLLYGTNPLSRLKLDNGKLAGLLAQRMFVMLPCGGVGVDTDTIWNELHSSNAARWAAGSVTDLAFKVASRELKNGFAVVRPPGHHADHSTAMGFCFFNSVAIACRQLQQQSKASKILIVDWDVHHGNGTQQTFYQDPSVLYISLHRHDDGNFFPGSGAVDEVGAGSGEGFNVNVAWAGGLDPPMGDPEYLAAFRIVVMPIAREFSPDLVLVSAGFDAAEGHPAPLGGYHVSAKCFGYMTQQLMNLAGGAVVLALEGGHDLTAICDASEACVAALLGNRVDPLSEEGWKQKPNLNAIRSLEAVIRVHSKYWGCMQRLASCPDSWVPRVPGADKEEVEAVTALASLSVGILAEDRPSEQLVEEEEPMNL

[6] = target: T2, Histone deacetylase 7 (Homo sapiens); assay: Inhibition of HDAC7 (unknown origin) assessed as residual activity at 4.12 x 10^-8M (reference value: 102.66%); settings: dose 4.12 10^-8M
[7] = target: Histone deacetylase 9 (Homo sapiens) (UniProt Q9UKV0); assay: Inhibition of HDAC9 (unknown origin) assessed as residual activity at 1.52 x 10^-9M (reference value: 97.55%); settings: dose 1.52 10^-9M
Chain of Histone deacetylase 9 (Homo sapiens) (Q9UKV0 whole entry): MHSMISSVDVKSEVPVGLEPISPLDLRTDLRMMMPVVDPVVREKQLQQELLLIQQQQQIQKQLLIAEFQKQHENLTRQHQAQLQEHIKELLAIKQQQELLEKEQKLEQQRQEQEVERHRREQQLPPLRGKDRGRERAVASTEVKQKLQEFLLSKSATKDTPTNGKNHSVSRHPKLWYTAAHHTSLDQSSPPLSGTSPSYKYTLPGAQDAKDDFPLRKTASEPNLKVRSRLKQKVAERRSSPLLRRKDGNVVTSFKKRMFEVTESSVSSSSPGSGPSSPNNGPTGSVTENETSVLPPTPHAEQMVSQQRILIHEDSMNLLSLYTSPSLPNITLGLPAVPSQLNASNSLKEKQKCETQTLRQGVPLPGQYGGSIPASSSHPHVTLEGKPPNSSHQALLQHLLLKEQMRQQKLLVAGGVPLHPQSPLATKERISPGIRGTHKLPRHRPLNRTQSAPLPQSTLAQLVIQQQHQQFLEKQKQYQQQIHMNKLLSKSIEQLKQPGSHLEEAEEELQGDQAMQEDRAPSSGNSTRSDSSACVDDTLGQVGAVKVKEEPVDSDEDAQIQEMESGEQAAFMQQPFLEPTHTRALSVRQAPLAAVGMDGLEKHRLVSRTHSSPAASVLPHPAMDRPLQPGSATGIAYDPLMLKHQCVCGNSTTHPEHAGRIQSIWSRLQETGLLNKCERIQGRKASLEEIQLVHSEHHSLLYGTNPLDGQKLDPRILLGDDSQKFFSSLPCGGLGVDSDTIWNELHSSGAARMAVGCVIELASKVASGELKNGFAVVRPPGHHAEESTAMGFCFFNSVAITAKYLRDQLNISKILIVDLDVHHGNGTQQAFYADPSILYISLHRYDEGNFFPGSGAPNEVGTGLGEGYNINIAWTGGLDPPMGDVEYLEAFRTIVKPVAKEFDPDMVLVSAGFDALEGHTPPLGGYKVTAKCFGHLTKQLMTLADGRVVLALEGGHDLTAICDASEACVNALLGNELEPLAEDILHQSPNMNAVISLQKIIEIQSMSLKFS

HL-60 = assay: Downregulation of PAR protein expression in human HL-60 cells at 0.5 to 1 times IC50 measured after 24 hrs by Western blot analysis; format: functional, cell-based

Compound: NC(=O)c1cccc2[nH]c(-c3ccc(NCc4ccc(C(=O)Nc5ccccc5N)cc4)cc3)nc12
- Activity [1]: 107%
- Activity [2]: 93%
- Activity [3]: 82.1%
- Activity [4]: 79.8%
- Activity [5]: 95.6%
- Activity [6]: 87%
- Activity [7]: 97.8%
- Activity (HL-60): Dose-Dependent Effect
